SMILES strings stand for the structures.

15 molecules from patent US9199962B2, “Substituted azaheterocycles for the treatment of cancer” (Merck Patent GmbH, priority 2011, dated 2015) can be followed below.

T1 sequence (Q05397 376-1052): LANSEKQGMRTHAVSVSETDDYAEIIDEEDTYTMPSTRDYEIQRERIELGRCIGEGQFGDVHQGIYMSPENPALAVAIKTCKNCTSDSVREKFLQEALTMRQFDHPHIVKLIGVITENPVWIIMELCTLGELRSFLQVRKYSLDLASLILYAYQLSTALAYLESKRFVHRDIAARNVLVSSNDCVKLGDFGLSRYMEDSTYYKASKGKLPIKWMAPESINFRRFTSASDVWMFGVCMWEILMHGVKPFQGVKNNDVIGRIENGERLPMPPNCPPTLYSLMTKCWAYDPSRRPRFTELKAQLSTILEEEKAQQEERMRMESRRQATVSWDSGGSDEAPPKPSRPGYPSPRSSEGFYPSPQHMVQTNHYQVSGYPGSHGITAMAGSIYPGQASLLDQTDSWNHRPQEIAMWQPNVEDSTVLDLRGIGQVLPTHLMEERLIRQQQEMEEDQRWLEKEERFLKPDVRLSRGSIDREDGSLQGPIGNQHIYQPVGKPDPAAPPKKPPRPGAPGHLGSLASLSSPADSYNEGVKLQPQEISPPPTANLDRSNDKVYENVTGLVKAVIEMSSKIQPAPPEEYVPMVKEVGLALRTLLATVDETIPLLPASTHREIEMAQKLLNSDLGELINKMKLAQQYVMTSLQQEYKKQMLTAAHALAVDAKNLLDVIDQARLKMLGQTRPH

One experiment concerns the target T1, GST-FAK (N-terminal GST fusion with truncated human FAK (376-1052 (end) amino acids)) (Homo sapiens, UniProt Q05397).
T1 construct: truncated human FAK (376-1052 (end) amino acids)
As to the kind of experiment: Biochemical enzyme assay for FAK activity (Caliper LC3000 mobility shift). Conditions: Table 1; 100 uM ATP; read-out: FAK IC50. Put shortly: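 Inhibitor dose series in DMSO were incubated 90 min at 25 °C with truncated GST-tagged human FAK (0.067 ng/µl) and FITC-labelled peptide substrate (1 µM), with ATP at 100 µM and FERM peptide at 1 mM (pH 7.5 HEPES). After EDTA quench, phosphorylated and unphosphorylated peptides were resolved electrophoretically. Percent conversion was fitted for IC50.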
What is called IC50 is the concentration needed to halve the response being measured. In the case of `COc1ccc(CNc2ccnc(-c3cncc(C(F)(F)F)c3)n2)c(F)c1F` [Compound 24, (2,3-Difluoro-4-methoxy-benzyl)-[2-(5-trifluoromethyl-pyridin-3-yl)-pyrimidin-4-yl]-amine], the IC50 was 1 to 10 µM.
Same read-out and setting: as for `O=C(c1cncc(-c2nccc(NCc3ccc(N4CCOCC4)cc3)n2)c1)N1CCOCC1` [Compound 14, Morpholin-4-yl-{5-[4-(4-morpholin-4-yl-benzylamino)-pyrimidin-2-yl]-pyridin-3-yl}-methanone], the figure is above 10 µM; as for `Fc1cc(Cl)ccc1CNc1ccnc(-c2cncc(C(F)(F)F)c2)n1` [Compound 35, (4-Chloro-2-fluoro-benzyl)-[2-(5-trifluoromethyl-pyridin-3-yl)-pyrimidin-4-yl]-amine], below 0.1 µM.
The same measure, in the same setting: as for `Fc1ccc(Oc2ccc(CNc3ccnc(-c4cncc(F)c4)n3)cc2)cc1` [Compound 7, [4-(4-Fluoro-phenoxy)-benzyl]-[2-(5-fluoro-pyridin-3-yl)-pyrimidin-4-yl]-amine], the figure is above 10 µM.

The experiment is the same for the next values; noted with them: Table 2; 100 uM ATP; read-out: FAK IC50.
Turning to `CCc1noc(CCNC(=O)c2cc(NCc3ccc(F)cc3F)nc(-c3cncc(C(F)(F)F)c3)n2)n1` [Compound 74, 6-(2,4-Difluoro-benzylamino)-2-(5-trifluoromethyl-pyridin-3-yl)-pyrimidine-4-carboxylic acid [2-(3-ethyl-[1,2,4]oxadiazol-5-yl)-ethyl]-amide], the IC50 fell in the range of 0.1 to 1 µM.

The same experiment, now with this note: Table 3; 100 uM ATP; read-out: FAK IC50.
For `Nc1ncccc1-c1nccc(NC2CCOc3ccccc32)n1` (stereo not drawn) [Compound 116, 2-(2-Aminopyridin-3-yl)-N-(3,4-dihydro-2H-chromen-4-yl)pyrimidin-4-amine], the IC50 is above 10 µM.
As for `Nc1ncccc1-c1nccc(NCc2cccnc2)n1` [Compound 121, 2-(2-Aminopyridin-3-yl)-N-(pyridin-3-ylmethyl)pyrimidin-4-amine], the IC50 is above 10 µM.
On the same count and under the same terms, as for `Nc1ncccc1-c1nccc(NCc2ccc(C(F)(F)F)cc2)n1` [Compound 96, 2-(2-Aminopyridin-3-yl)-N-[4-(trifluoromethyl)benzyl]pyrimidin-4-amine], the figure is above 10 µM.
The same measure, in the same setting: as for `Nc1ncccc1-c1nccc(N2Cc3ccccc3C2=O)n1` [Compound 120, 2-[2-(2-Aminopyridin-3-yl)pyrimidin-4-yl]isoindolin-1-one], the figure is above 10 µM.

Staying with this experiment, now noted: Table 5; 100 uM ATP; read-out: FAK IC50.
Consider `CNC(=O)c1ccccc1CNc1ccnc(-c2cncc(C(F)(F)F)c2)n1` [Compound 234, N-Methyl-2-{[2-(5-trifluoromethyl-pyridin-3-yl)-pyrimidin-4-ylamino]-methyl}-benzamide], for which the half-maximal inhibitory concentration (IC50) was in the range of 1 to 10 µM.
Same read-out and setting: under `CS(=O)(=O)N1CCOC(CNc2ccnc(-c3cncc(C(F)(F)F)c3)n2)C1` (stereo not drawn) [Compound 249, (4-Methanesulfonyl-morpholin-2-ylmethyl)-[2-(5-trifluoromethyl-pyridin-3-yl)-pyrimidin-4-yl]-amine] stands 1 to 10 µM; under `CS(=O)(=O)Nc1cccc(-c2nccc(NCc3ccc(F)cc3C(F)(F)F)n2)c1` [Compound 245, N-{3-[4-(4-Fluoro-2-trifluoromethyl-benzylamino)-pyrimidin-2-yl]-phenyl}-methanesulfonamide], above 10 µM.
Same read-out and setting: under `COc1cc(NC(=O)c2cc(NCc3ccc(F)cc3F)nc(-c3cncc(C(F)(F)F)c3)n2)ccn1` [Compound 232, 6-(2,4-Difluoro-benzylamino)-2-(5-trifluoromethyl-pyridin-3-yl)-pyrimidine-4-carboxylic acid (2-methoxy-pyridin-4-yl)-amide] stands 1 to 10 µM.
Same read-out and setting: as for `CC(Nc1ccnc(-c2cncc(C(F)(F)F)c2)n1)c1ccccc1F` (stereo not drawn) [Compound 267, [1-(2-Fluoro-phenyl)-ethyl]-[2-(5-trifluoromethyl-pyridin-3-yl)-pyrimidin-4-yl]-amine], the figure is 0.1 to 1 µM; as for `Cn1cc(-c2cc(NCc3ccc(F)cc3F)nc(-c3cncc(C(F)(F)F)c3)n2)cn1` [Compound 257, (2,4-Difluoro-benzyl)-[6-(1-methyl-1H-pyrazol-4-yl)-2-(5-trifluoromethyl-pyridin-3-yl)-pyrimidin-4-yl]-amine], 0.1 to 1 µM.
